From US4098782A, “(His^5)-somatostatin and analogues thereof” (American Home Products Corporation, priority 1977, dated 1978) come the findings set out here.

Format in all cases: in vivo
One test has as its system growth hormone. Description: Arginine-stimulated growth hormone secretion in Nembutal-anesthetized rats. The settings on record: for GH: albino male rats, blood 15 min after dose (5 min after arginine), control 288 ± 30, * = p < 0.01. As for the experimental part: (§1) Albino male rats were administered Nembutal intraperitoneally at a dose of 50 milligrams per kilogram. Fifteen minutes later a subcutaneous injection of the test compound or physiological saline was administered. Ten minutes later 0.5 milliliters of arginine (300 milligrams per milliliter, pH 7.2) is injected into the heart. Five minutes after receipt of the arginine the rats are decapitated and blood is collected into trasylol-EDTA. An appropriate aliquot was assayed for growth hormone, insulin and glucagon.

The subject of the next test is insulin. The test can be described thus: Arginine-stimulated insulin secretion in Nembutal-anesthetized rats. The settings on record: for Insulin: albino male rats, blood 15 min after dose (5 min after arginine), control 372 ± 47. As for the experimental part:
as §1

The test system of another test is glucagon. Description: Arginine-stimulated glucagon secretion in Nembutal-anesthetized rats. The conditions noted are these: for Glucagon: albino male rats, blood 15 min after dose (5 min after arginine), control 51 ± 4, * = p < 0.01. As for the experimental part: as §1

Bridge positions count the residues as written; N and C are the ends. Peptide text beside a SMILES is read from it.

`C[C@H](N)C(=O)NCC(=O)N[C@H]1CSSC[C@@H](C(=O)O)NC(=O)[C@H](CO)NC(=O)[C@H]([C@@H](C)O)NC(=O)[C@H](Cc2ccccc2)NC(=O)[C@H]([C@@H](C)O)NC(=O)[C@H](CCCCN)NC(=O)[C@H](Cc2c[nH]c3ccccc23)NC(=O)[C@H](Cc2ccccc2)NC(=O)[C@H](Cc2ccccc2)NC(=O)[C@H](CC(N)=O)NC(=O)[C@H](CCCCN)NC1=O` [SRIF, reference compound] showed a GH in the test with growth hormone (200 ug/kg subcutaneous) of 66 ± 11 ng/mL. Moreover, in the test with insulin (200 ug/kg subcutaneous, + = p < 0.05), the Insulin came to 232 ± 23 μU/ml. Besides, the Glucagon in the test on glucagon (200 ug/kg subcutaneous) amounted to 26 ± 6 pg/mL.
In the case of `C[C@H](N)C(=O)NCC(=O)N[C@H]1CSSC[C@@H](C(=O)O)NC(=O)[C@H](CO)NC(=O)[C@H]([C@@H](C)O)NC(=O)[C@H](Cc2ccccc2)NC(=O)[C@H]([C@@H](C)O)NC(=O)[C@H](CCCCN)NC(=O)[C@H](Cc2c[nH]c3ccccc23)NC(=O)[C@H](Cc2ccccc2)NC(=O)[C@H](Cc2ccccc2)NC(=O)[C@H](Cc2c[nH]cn2)NC(=O)[C@H](CCCCN)NC1=O` [(His^5)SRIF, L-Alanyl-glycyl-L-cysteinyl-lysyl-L-histidyl-L-phenylalanyl-L-phenylalanyl-L-tryptophyl-L-lysyl-L-threonyl-L-phenylalanyl-L-threonyl-L-seryl-L-cysteine(3-14 cyclic)disulfide] (H-AGCKHFFWKTFTSC-OH; disulfide 3-14), the GH with growth hormone (1300 ug/kg subcutaneous) turned out to be 83 ± 15 ng/mL. The “reducing secretion of growth hormone (in words)” value in the test with growth hormone (summary of rat assay) is on record as “effective agent for reducing secretion of growth hormone”. The Insulin in the test with insulin (1300 ug/kg subcutaneous) is given as 390 ± 94 μU/ml. Besides, in the test on insulin (summary of rat assay), the “effect on insulin levels (in words)” value is “without materially affecting insulin levels”. Further, in the test with glucagon (1300 ug/kg subcutaneous), the Glucagon came out at 31 ± 6 pg/mL. Moreover, the “reducing secretion of glucagon (in words)” value in the test on glucagon (summary of rat assay) is “effective agent for reducing secretion of growth hormone and glucagon”.
